Experimental data published in patent US6642215B2 (Leo Pharma A/S, priority 2001, dated 2003).
Like-named read-outs stand apart in the source and are kept apart here.

Assays:
NF-κB = test: EMSA of NF-κB DNA binding activity in nuclear extracts of LPS-stimulated THP-1 cells; type: cell-based, human; conditions: 1 μM compound 24 h
Procedure: EMSA: For preparation of nuclear extracts, 10^7 cells were used at each experimental point. Following treatment of the THP-1 cells with either 1 μM of compound A for 24 h and stimulation with 1 μg/ml LPS at the indicated times, the cells were washed twice in PBS, and the cells were extracted for protein. The cells were resuspended in 500 μl buffer A (20 mM HEPES (pH 7.8), 0.1 mM EDTA, 10 mM KCL) with a protease inhibitor mixture (1 mM DTT, 0.5 mM Pefablock). Afterwards, the cells were incubated on ice for 15 min, then 30 μl 10% NP 40 was added and the cells were centrifuged at 5000×g. Each cell pellet was then resuspended in 50 μl buffer B (buffer A with 400 mM NaCl) and vortexed, followed by incubation for 15 min at 4° C. and centrifugation at 5000×g for 5 min at 4° C. The supernatant from each cell pellet was collected and the protein concentration quantified using the BCA-200 protein assay kit from Pierce (Rockford, Ill., USA). The nuclear extracts were stored at −80° C.
Double-stranded κB oligos (5′-AGTTGAGGGGACTTTCCCAGGC-3′ and the complement strand) were purchased from Promega. […] After electrophoresis at 4° C., the gel was dried, and the protein-DNA complexes were visualized and quantified on the STORM 860 Phospholmager using the ImageQuaNT software (available from Molecular Dynamics).

IKK = target: T1, IKK (Homo sapiens, UniProt O14920); test: In vitro kinase assay: IKK immunoprecipitated from LPS-stimulated THP-1 cells, GST-IκBα phosphorylation; type: biochemical; conditions: 30 min pretreatment of LPS-activated IKK
T1 construct: IKK was immunoprecipitated with an IKKα/β antibody; endogenous in cells; host or cells: THP-1 cells stimulated with 1 μg/ml LPS; whole cell extract immunoprecipitated with an IKKα/β antibody (Santa Cruz)
T1 sequence (O14920 whole entry): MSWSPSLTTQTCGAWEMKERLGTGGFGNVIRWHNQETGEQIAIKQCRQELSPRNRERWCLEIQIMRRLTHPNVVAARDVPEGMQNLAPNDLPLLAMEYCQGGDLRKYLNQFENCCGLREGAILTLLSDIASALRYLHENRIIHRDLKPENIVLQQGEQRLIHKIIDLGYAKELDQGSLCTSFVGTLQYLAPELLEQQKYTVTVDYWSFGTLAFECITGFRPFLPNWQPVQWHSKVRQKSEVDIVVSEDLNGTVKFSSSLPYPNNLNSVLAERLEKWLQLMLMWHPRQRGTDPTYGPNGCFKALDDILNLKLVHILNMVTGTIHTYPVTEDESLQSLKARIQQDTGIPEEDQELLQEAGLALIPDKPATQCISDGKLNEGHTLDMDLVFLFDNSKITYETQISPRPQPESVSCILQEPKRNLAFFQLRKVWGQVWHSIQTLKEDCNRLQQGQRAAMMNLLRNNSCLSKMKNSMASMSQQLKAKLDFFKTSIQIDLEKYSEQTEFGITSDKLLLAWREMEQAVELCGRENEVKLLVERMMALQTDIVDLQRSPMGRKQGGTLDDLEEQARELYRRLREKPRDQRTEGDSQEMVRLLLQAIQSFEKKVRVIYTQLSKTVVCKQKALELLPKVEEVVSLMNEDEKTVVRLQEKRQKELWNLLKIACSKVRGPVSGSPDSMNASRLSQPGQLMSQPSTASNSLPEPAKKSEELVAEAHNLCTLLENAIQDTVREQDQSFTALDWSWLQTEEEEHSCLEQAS
T1 sequence (O15111 whole entry partner): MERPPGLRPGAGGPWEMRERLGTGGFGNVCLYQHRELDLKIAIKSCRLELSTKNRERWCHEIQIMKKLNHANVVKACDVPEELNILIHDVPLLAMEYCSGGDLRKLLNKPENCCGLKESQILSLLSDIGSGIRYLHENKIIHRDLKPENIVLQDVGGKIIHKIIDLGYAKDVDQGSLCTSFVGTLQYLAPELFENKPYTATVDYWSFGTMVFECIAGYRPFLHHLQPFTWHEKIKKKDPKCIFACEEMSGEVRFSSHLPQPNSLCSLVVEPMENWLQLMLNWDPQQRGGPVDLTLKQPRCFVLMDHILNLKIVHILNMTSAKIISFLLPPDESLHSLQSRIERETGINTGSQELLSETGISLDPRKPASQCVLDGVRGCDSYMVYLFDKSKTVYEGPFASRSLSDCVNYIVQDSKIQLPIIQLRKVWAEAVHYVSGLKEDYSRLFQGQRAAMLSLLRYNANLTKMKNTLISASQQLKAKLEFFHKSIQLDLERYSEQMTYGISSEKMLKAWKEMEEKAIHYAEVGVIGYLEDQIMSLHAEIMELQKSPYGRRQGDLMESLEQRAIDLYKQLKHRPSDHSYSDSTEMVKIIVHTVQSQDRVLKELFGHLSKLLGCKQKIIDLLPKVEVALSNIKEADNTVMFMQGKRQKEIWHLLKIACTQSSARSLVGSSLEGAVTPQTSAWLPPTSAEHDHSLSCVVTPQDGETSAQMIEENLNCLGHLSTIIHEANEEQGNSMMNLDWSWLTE
T1 sequence (Q9Y6K9 whole entry partner): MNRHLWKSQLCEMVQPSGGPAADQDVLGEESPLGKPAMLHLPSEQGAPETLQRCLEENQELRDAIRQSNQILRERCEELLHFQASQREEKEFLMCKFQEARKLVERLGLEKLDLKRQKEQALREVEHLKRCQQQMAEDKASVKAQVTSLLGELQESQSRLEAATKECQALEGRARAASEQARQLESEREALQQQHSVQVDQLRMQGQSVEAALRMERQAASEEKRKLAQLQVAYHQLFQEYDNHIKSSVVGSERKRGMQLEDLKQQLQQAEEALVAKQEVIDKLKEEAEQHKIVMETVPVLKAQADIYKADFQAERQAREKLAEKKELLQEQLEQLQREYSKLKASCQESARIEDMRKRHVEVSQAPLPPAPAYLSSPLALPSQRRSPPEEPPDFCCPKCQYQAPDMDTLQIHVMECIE
Procedure: In vitro kinase assay: THP-1 cells (1×10^7 cells) were stimulated with 1 μg/ml LPS for the indicated time periods and whole cell extracts were prepared as described above. IKK was immunoprecipitated with an IKKα/β antibody (raised against amino acid 470-755 of IKKβ of human origin but partially cross-reactive with IKKα as detected by Western Blotting (Santa Cruz Biotechnology Inc.). Compound A was diluted in kinase buffer (25 mM HEPES pH 7.5, 10 mM magnesium acetate, 50 μM ATP) at the appropriate concentrations. The compound was added to the beads for 30 min. at 30° C. The kinase reaction was started by adding 2.5 μg of the GST-IκBα substrate (Santa Cruz Biotechnology Inc.) together with 2 μCi γ-^32P-ATP (Amersham Pharmacia Biotech) per sample. The reaction was allowed to proceed for 30 min. at 30° C., and the IKK activity was measured by the amount of radioactive-labelled GST-IκBα bands, quantified by the STORM860 Phospho-Imager.
A general problem with the kinase assay is prestimulation of the kinase. To achieve a value for the zero-point, the LPS-activated IKK mixture was incubated with 20 μM myricetin (Sigma-Aldrich), which is a known IKKβ inhibitor (S. H. Tsal et al., J. Cell Biochem. 74, 1999, pp. 606-615). This value was subtracted from the all other values. All data are expressed as percentage of the activity of the LPS-activated IKKβ kinase treated with 0.1% DMSO.

Q: Which “NF-κB DNA-binding activity suppressed compared to the control” value (NF-κB; after 0.5 to 4 h of LPS-stimulation) does the source give for `N#CNC(=Nc1ccncc1)NCCCCCCOc1ccc(Cl)cc1` [compound A, N-(6-(4-chlorophenoxy)hexyl)-N′-cyano-N″-(4-pyridyl)guanidine] here?
A: Its value is 2 fold.

Q: What about the “NF-κB DNA-binding activity suppressed compared to the control” value (NF-κB; after 24 h of LPS-stimulation) of the same compound?
A: Its value is 5 fold.

Q: And the IC50 (IKK; four independent experiments, read-out: IKK activity IC50, range of values)?
A: The IC50 was 0.9 to 70 nM.

Q: And the IC50 (IKK; mean of four independent experiments, read-out: IKK activity, mean IC50 value)?
A: The IC50 was 8 nM.
